This assay relates to mutant Huntington (HTT) protein. Description: HTT Mutant HTRF iPSC assay (mHTT protein lowering). In kind it is cell-based. The following applies: human iPSC derived from a HTT patient with a poly-Q49 mutation. A general note: TR-FRET usually uses a lanthanide donor and a delayed reading to cut background.

Experimental findings from patent publication US20260035387A1 (BIOGEN MA INC., priority 2022, published 2026) are described below.

The IC50 is the point on the concentration scale where inhibition reaches its midpoint. A higher IC50 goes with weaker potency.

`COc1cc2nn(C)cc2cc1NC(=O)c1nc2ccc(N3CCC4(CCCN4C)C3)nc2s1` (stereo not drawn) [Compound 87, N-(6-methoxy-2-methyl-2H-indazol-5-yl)-5-(1-methyl-1,7-diazaspiro[4.4]nonan-7-yl)thiazolo[5,4-b]pyridine-2-carboxamide] returned an IC50 below 100 nM.

With `Cc1cn2cc(NC(=O)c3cc4ccc(N5CCC(N6CC(C)(C)C6)C5)nc4s3)ccc2n1` (stereo not drawn) [Compound 35, 6-(3-(3,3-dimethylazetidin-1-yl)pyrrolidin-1-yl)-N-(2-methylimidazo[1,2-a]pyridin-6-yl)thieno[2,3-b]pyridine-2-carboxamide], the IC50 is 100 to 1000 nM.

`COc1cn2nc(C)cc2cc1NC(=O)c1cc2ccc(N3CCC4(CCCN4C)C3)nc2s1` (single isomer, unassigned) [Compound 224] had an IC50 below 100 nM.

Regarding `COc1c(NC(=O)c2cc3ccc(N4CCC5(CCCN5C)C4)nc3s2)cn2cc(C)nc2c1F` (single isomer, unassigned) [Compound 242], the IC50 is below 100 nM.

The molecule `Cc1cn2cc(NC(=O)c3cc4ncc(C5=CC(N)CCC5)nc4s3)cc(F)c2n1` (racemic) [Compound 145, 3-(3-aminocyclohex-1-en-1-yl)-N-(8-fluoro-2-methylimidazo[1,2-a]pyridin-6-yl)thieno[2,3-b]pyrazine-6-carboxamide] gave an IC50 of 100 to 1000 nM.

In the case of `Cc1cn2nc(NC(=O)c3cc4ccc(N5CC[C@@H](N(C)C)C5)nc4s3)ccc2n1` [Compound 53, (R)-6-(3-(dimethylamino)pyrrolidin-1-yl)-N-(2-methylimidazo[1,2-b]pyridazin-6-yl)thieno[2,3-b]pyridine-2-carboxamide], the IC50 was in the range of 1000 to 9000 nM.

In turn, `Cc1cn2cc(NC(=O)c3cc4ccc(N5CCC(N6CC(C)(C)C6)CC5)nc4s3)ccc2n1` [Compound 17, 6-(4-(3,3-dimethylazetidin-1-yl)piperidin-1-yl)-N-(2-methylimidazo[1,2-a]pyridin-6-yl)thieno[2,3-b]pyridine-2-carboxamide] showed an IC50 of 1000 to 9000 nM.

Take `Cc1cn2cc(NC(=O)c3cc4ccc(C5=CC6CCC(C5)N6)nc4s3)cc(F)c2n1` (stereo not drawn) [Compound 83, 6-(8-azabicyclo[3.2.1]oct-2-en-3-yl)-N-(8-fluoro-2-methylimidazo[1,2-a]pyridin-6-yl)thieno[2,3-b]pyridine-2-carboxamide]: the IC50 is below 100 nM.

`CCNC1CCN(c2ccc3cc(C(=O)Nc4cc5cc(C)nn5cc4OC)sc3n2)C1` (single isomer, unassigned) [Compound 212] displayed an IC50 below 100 nM.

In the case of `Cc1cn2cc(NC(=O)c3nc4ccc(C5CCN(C)C5)nc4s3)cc(F)c2n1` (stereo not drawn) [Compound 131, N-(8-fluoro-2-methylimidazo[1,2-a]pyridin-6-yl)-5-(1-methylpyrrolidin-3-yl)thiazolo[5,4-b]pyridine-2-carboxamide], the IC50 is below 100 nM.

In the case of `Cc1cn2cc(NC(=O)c3cc4ccc(OC5CC6(CCN(C)CC6)C5)nc4s3)cc(F)c2n1` [Compound 162, N-(8-fluoro-2-methylimidazo[1,2-a]pyridin-6-yl)-6-((7-methyl-7-azaspiro[3.5]nonan-2-yl)oxy)thieno[2,3-b]pyridine-2-carboxamide], the IC50 lay in the range of 100 to 1000 nM.

Regarding `Cc1cn2cc(NC(=O)c3cc4ccc(N5CC(N(C)C)C6(CC6)C5)nc4s3)nc(C)c2n1` (stereo not drawn) [Compound 211, 6-(7-(dimethylamino)-5-azaspiro[2.4]heptan-5-yl)-N-(2,8-dimethylimidazo[1,2-a]pyrazin-6-yl)thieno[2,3-b]pyridine-2-carboxamide], the IC50 was below 100 nM.

Consider `CCN1CCN(c2ccc3nc(C(=O)Nc4cn5cc(C)nc5c(OC)n4)sc3n2)CC1` [Compound 96, 5-(4-ethylpiperazin-1-yl)-N-(8-methoxy-2-methylimidazo[1,2-a]pyrazin-6-yl)thiazolo[5,4-b]pyridine-2-carboxamide], for which the IC50 was below 100 nM.

In turn, `Cc1cn2cc(NC(=O)c3nc4ccc(N5C[C@@H]6CN(C)C[C@@H]65)nc4s3)cc(F)c2n1` [Compound 106, N-(8-fluoro-2-methylimidazo[1,2-a]pyridin-6-yl)-5-((1S,5R)-3-methyl-3,6-diazabicyclo[3.2.0]heptan-6-yl)thiazolo[5,4-b]pyridine-2-carboxamide] gave a half-inhibitory concentration (IC50) of 100 to 1000 nM.

For the molecule `Cc1cn2cc(NC(=O)c3cc4ncc(C5=CCCC(N)C5)nc4s3)cc(F)c2n1` (racemic) [Compound 143, 3-(5-aminocyclohex-1-en-1-yl)-N-(8-fluoro-2-methylimidazo[1,2-a]pyridin-6-yl)thieno[2,3-b]pyrazine-6-carboxamide], the IC50 lay within 100 to 1000 nM.

For the molecule `Cc1cn2cc(NC(=O)c3cc4ccc(N5C[C@@H]6C[C@H]5CN6C(C)C)nc4s3)cc(F)c2n1` [Compound 189, N-(8-fluoro-2-methylimidazo[1,2-a]pyridin-6-yl)-6-((1S,4S)-5-isopropyl-2,5-diazabicyclo[2.2.1]heptan-2-yl)thieno[2,3-b]pyridine-2-carboxamide], the IC50 was below 100 nM.

On to `Cc1cn2cc(NC(=O)c3cc4ccc(N5CC(N(C)C)C5)nc4s3)ccc2n1` [Compound 22, 6-(3-(dimethylamino)azetidin-1-yl)-N-(2-methylimidazo[1,2-a]pyridin-6-yl)thieno[2,3-b]pyridine-2-carboxamide], for which the IC50 lay within 1000 to 9000 nM.

`Cc1cn2cc(NC(=O)c3cc4ccc(Nc5cccc(N6CC(C)(C)C6)c5)nc4s3)ccc2n1` [Compound 42, 6-((3-(3,3-dimethylazetidin-1-yl)phenyl)amino)-N-(2-methylimidazo[1,2-a]pyridin-6-yl)thieno[2,3-b]pyridine-2-carboxamide] came in with an IC50 of 1000 to 9000 nM.

On to `Cc1cn2cc(NC(=O)c3cc4ccc(N5C[C@H]6CN(C)C[C@H]65)nc4s3)nc(C)c2n1` [Compound 218, N-(2,8-dimethylimidazo[1,2-a]pyrazin-6-yl)-6-((1R,5S)-3-methyl-3,6-diazabicyclo[3.2.0]heptan-6-yl)thieno[2,3-b]pyridine-2-carboxamide], for which the IC50 is below 100 nM.

Consider `Cc1cn2cc(NC(=O)c3cc4ccc(N5CCC6CNCC65)nc4s3)nc(C)c2n1` (racemic) [Compound 215, N-(2,8-dimethylimidazo[1,2-a]pyrazin-6-yl)-6-(hexahydropyrrolo[3,4-b]pyrrol-1(2H)-yl)thieno[2,3-b]pyridine-2-carboxamide], for which the half-maximal inhibitory concentration (IC50) was below 100 nM.

On to `Cc1cn2cc(NC(=O)c3cc4cnc(N5CC[C@@H](N(C)C)C5)nc4s3)cc(F)c2n1` [Compound 149, (R)-2-(3-(dimethylamino)pyrrolidin-1-yl)-N-(8-fluoro-2-methylimidazo[1,2-a]pyridin-6-yl)thieno[2,3-d]pyrimidine-6-carboxamide], for which the IC50 is 100 to 1000 nM.

In turn, `Cc1cn2cc(C(=O)Nc3cc4ccc(N5CC[C@H](N(C)C)C5)nc4s3)cc(F)c2n1` [Compound 153, N-[6-[(3S)-3-(dimethylamino)pyrrolidin-1-yl]thieno[2,3-b]pyridin-2-yl]-8-fluoro-2-methyl-imidazo[1,2-a]pyridine-6-carboxamide] came in with an IC50 below 100 nM.

`CCNC1CCN(c2ccc3cc(C(=O)Nc4cc5cc(C)nn5cc4OC)sc3n2)C1` (single isomer, unassigned) [Compound 213] returned an IC50 below 100 nM.

As for `Cc1cn2cc(NC(=O)c3cc4ccc(OC5CCNC(C)(C)C5)nc4s3)cc(F)c2n1` (racemic) [Compound 158, 6-((2,2-dimethylpiperidin-4-yl)oxy)-N-(8-fluoro-2-methylimidazo[1,2-a]pyridin-6-yl)thieno[2,3-b]pyridine-2-carboxamide], the concentration for half-maximal inhibition (IC50) was below 100 nM.

Regarding `COc1c(NC(=O)c2cc3ccc(C4CCN(C)C4)nc3s2)cc2cn(C)nc2c1F` (single isomer, unassigned) [Compound 266], the IC50 was below 100 nM.

For `COc1cc2nn(C)cc2cc1NC(=O)c1cc2ccc(N[C@H]3CC(C)(C)NC(C)(C)[C@@H]3F)nc2s1` (racemic) [Compound 261, 6-(((3R,4S)-3-fluoro-2,2,6,6-tetramethylpiperidin-4-yl)amino)-N-(6-methoxy-2-methyl-2H-indazol-5-yl)thieno[2,3-b]pyridine-2-carboxamide], the IC50 is below 100 nM.

In turn, `Cc1cn2cc(NC(=O)c3cc4ccc(N5CCN(C)c6ncccc6C5)nc4s3)ccc2n1` [Compound 31, 6-(1-methyl-1,2,3,5-tetrahydro-4H-pyrido[2,3-e][1,4]diazepin-4-yl)-N-(2-methylimidazo[1,2-a]pyridin-6-yl)thieno[2,3-b]pyridine-2-carboxamide] yielded an IC50 of 100 to 1000 nM.

Molecule `Cc1cn2cc(NC(=O)c3cc4ccc(N5CC6CCNC6C5)nc4s3)cc(F)c2n1` (stereo not drawn) [Compound 237, N-(8-fluoro-2-methylimidazo[1,2-a]pyridin-6-yl)-6-(hexahydropyrrolo[3,4-b]pyrrol-5(1H)-yl)thieno[2,3-b]pyridine-2-carboxamide] showed an IC50 below 100 nM.

`COc1cc(NC(=O)c2cc3nc(N4C[C@H]5CN(C)C[C@H]54)ccc3o2)cn2cc(C)nc12` (stereo in doubt) [Compound 168, N-(8-methoxy-2-methyl-imidazo[1,2-a]pyridin-6-yl)-5-[(1R,5S)-3-methyl-3,6-diazabicyclo[3.2.0]heptan-6-yl]furo[3,2-b]pyridine-2-carboxamide]: the IC50 was below 100 nM.

Molecule `COc1cc2nn(C)cc2cc1NC(=O)c1nc2ccc(N3CC[C@@H](N4CCC4)C3)nc2s1` [Compound 120, (R)-5-(3-(azetidin-1-yl)pyrrolidin-1-yl)-N-(6-methoxy-2-methyl-2H-indazol-5-yl)thiazolo[5,4-b]pyridine-2-carboxamide] displayed an IC50 of 100 to 1000 nM.

The molecule `Cc1cn2cc(NC(=O)c3cc4ccc(N5CC6(CCCN(C)C6)C5)nc4s3)cc(F)c2n1` [Compound 76, N-(8-fluoro-2-methylimidazo[1,2-a]pyridin-6-yl)-6-(6-methyl-2,6-diazaspiro[3.5]nonan-2-yl)thieno[2,3-b]pyridine-2-carboxamide] showed an IC50 of 100 to 1000 nM.

In turn, `CN(C)C1CCN(c2ccc3cc(C(=O)Nc4ccc5sc(=O)n(C)c5c4)sc3n2)C1` (stereo not drawn) [Compound 59, 6-(3-(dimethylamino)pyrrolidin-1-yl)-N-(3-methyl-2-oxo-2,3-dihydrobenzo[d]thiazol-5-yl)thieno[2,3-b]pyridine-2-carboxamide] came in with an IC50 of 1000 to 9000 nM.

With `Cc1cn2cc(NC(=O)c3cc4ccc(N5CCC6(CCN(C)CC6)CC5)nc4s3)ccc2n1` [Compound 20], the IC50 is 100 to 1000 nM.
